Test results as given in patent publication US20260174786A1, “A NITROGEN-CONTAINING SPIROCYCLIC COMPOUND, PHARMACEUTICAL COMPOSITION AND USE THEREOF” (Prime Gene Therapeutics Co., Ltd., priority 2022, published 2026).

Experiments:
[1] = Liver microsome metabolism stability test (human); format: in vitro ADME; details: human liver microsomes, 1 μM compound
Method: Two separate experiments were conducted. a) NADPH: 10 μL of 20 mg/mL liver microsomes and 40 μL of 10 mM NADPH were added to a culture medium. The final concentrations of microsomes and NADPH were 0.5 mg/mL and 1 mM, respectively. b) NADPH free: 10 μL of 20 mg/mL liver microsomes and 40 μL of ultrapure H2O were added to a culture medium. The final concentration of microsomes was 0.5 mg/mL.
At the beginning of the reaction, 4 μL of 100 μM test compound solution or a control compound solution with a final concentration of 1 μM were added, and proceed at 37° C.
50 μL aliquots were taken from the reaction solution at 0, 7, 15, 30, and 60 minutes. The reaction was stopped by adding 4 volumes of cold acetonitrile and IS (100 nM alprazolam, 200 nM labetalol, 200 nM caffeine, and 2 μM ketoprofen). The samples were centrifuged at 3220 grams for 40 minutes. 100 μL supernatant divided equally was mixed with 100 μL of ultrapure H2O, and use for LC-MS/MS analysis.

[2] = Balanced dialysis plasma protein binding test (human); format: in vitro ADME
Method: 1. Immersing a dialysis membrane (water: 60 minutes, 20% ethanol: 20 minutes, dialysis buffer: 20 minutes). 2. Diluting the test compound in dimethyl sulfoxide (working solution) to 200 μM. 3. Thawing the plasma in a 37° C. water bath and centrifuge the plasma at 3220 g for 10 minutes to remove blood clots. 4. Transferring the supernatant to a new tube and preheating it in a 37° C. water bath for 10 minutes. 5. Assembling HTD dialysis equipment according to the manufacturer's guidelines. 6. Adding 3 μL of 200 μM test compound to 597 μL of plasma and rotating at 1000 rpm for 2 minutes. 7. Transferring 50 μL of spiked plasma to a 96 well plate, then adding 50 μL of dialysis buffer and 200 μL of methanol, using IS * as the T0 sample. 8. Adding 120 μL of spiked plasma and 120 μL of dialysis buffer in duplicate into the chamber of the HTD dialysis device. 9. Covering the dialysis equipment with a breathable cover and incubating the dialysis equipment and the remaining spiked plasma at 37° C. (100 rpm, 5% CO2) for 6 hours. 10. Transferring 50 μL of dialyzed sample from the dialysis buffer and the plasma chamber to a separate 96 well plate, then adding 50 μL of blank plasma or dialysis buffer and 200 μL of methanol, with IS * as the B and P samples. 11. Transferring 50 μL of remaining spiked plasma (as described in step 9) to a 96 well plate, then adding 50 μL of dialysis buffer and 200 μL of methanol, with IS * as the T6 sample. 12. Centrifuging the sample plate at 3220 g for 40 minutes. 13. Transferring 100 μL of supernatant onto an analytical plate containing an appropriate volume of water for LC-MS/MS. 14. Data analysis.

[3] = Pharmacokinetic experiments in male SD rats; format: in vivo, rat
Method: Male SD rats were grouped in groups of 3 rats each and orally administered with the compound of Example (10 mg/kg) and intravenously injected with the compound of Example (2 mg/kg). Animals were fasted overnight before the experiment, from 10 hours before administration to 4 hours after administration. Blood samples were collected at 0.25, 0.5, 1, 2, 4, 8, and 24 hours after administration in the oral group, and at 0.083, 0.25, 0.5, 1, 2, 4, 8, and 24 hours after injection in the intravenous group. After anesthesia with isoflurane using a small animal anesthesia machine, 0.3 mL of whole blood was collected through the retinal venous plexus, and placed in a heparin anticoagulant tube. The sample was centrifuged at 4° C. and 4000 rpm for 5 minutes, and the plasma was transferred to the centrifuge tube and stored at −80° C. until analysis. The plasma samples were extracted using protein precipitation method, and the extract was analyzed by LC-MS/MS.

hTRPV4 = hTRPV4 (Homo sapiens, UniProt Q9HBA0); assay: Inhibition rate on different hTRPs: hTRPV4; format: cell-based
hTRPA1 = hTRPA1 (Homo sapiens, UniProt O75762); assay: Inhibition rate on different hTRPs: hTRPA1; format: cell-based
[4] = Permeability experiment of Caco-2 cells; format: in vitro ADME; details: human, pH 7.4, Caco-2, 5 μM
Method: (§1) 1. Transwell plate preheating: before laying cells, adding 100 μL of culture medium to the upper layer of Transwell plate and 600 μL of culture medium to the lower layer of Transwell plate, Pre-incubating at 37° C. under 5% CO2 for 1 hour. 2. Treating Caco-2 cells by adding 100 μL of cell suspension (4×10^5 cells/mL) to each well, and cultivating in a 37° C., 5% CO2 incubator for 14-21 days. 3. Changing the cell culture medium every other day within 7 days, and changing it daily after 7 days. 4. Using EVOM3 to measure single-layer epithelial to epithelial resistance (TEER).
(§2) 1. Preheating HBSS (10 mM HEPES, pH 7.4) buffer, cleaning the upper and lower layers of Transwell plates twice each, and incubating at 37° C. for 30 minutes. 2. Working solution: Diluting the test compound HBSS buffer with 1 mM DMSO to 5 μM. 3. A-B direction: Adding 200 μL of 5 μM working solution to the upper layer and 600 μL of HBSS buffer solution to the lower layer; 4. B-A direction: Adding 600 μL of 5 μM working solution to the lower layer and 200 μL of HBSS buffer to the upper layer, and incubating for 2 hours. 5. C0 sample: Taking 100 μL of working solution to a sample plate containing 400 μL of methanol (internal standard). 6. After incubation for 2 hours, taking 100 μL from the upper and lower layers of the chamber to the sample plates containing 400 μL of methanol (internal standard). 7. Mixing and centrifuging, mixing the supernatant with a certain amount of water, and using the sample for LC-MS/MS data analysis. 8. After completing step 6, adding 200 μL of 100 μM fluorescent yellow solution to the upper chamber and 600 μL of HBSS buffer salt solution to the lower chamber. Incubating at 37° C. and 5% CO2 for 30 minutes, and taking out 50 μL of each into a black plate to read the fluorescence value. 9. Data analysis.

Caco-2 cells = assay: Permeability experiment of Caco-2 cells; format: in vitro ADME; details: Caco-2, 5 μM
Method: as §1, §2

[5] = male, SD, rat, plasma, intravenous, 2 mg/kg
[6] = male, SD, rat, plasma, po, gavage, 10 mg/kg

hTRPV4, sequence (Q9HBA0 whole entry): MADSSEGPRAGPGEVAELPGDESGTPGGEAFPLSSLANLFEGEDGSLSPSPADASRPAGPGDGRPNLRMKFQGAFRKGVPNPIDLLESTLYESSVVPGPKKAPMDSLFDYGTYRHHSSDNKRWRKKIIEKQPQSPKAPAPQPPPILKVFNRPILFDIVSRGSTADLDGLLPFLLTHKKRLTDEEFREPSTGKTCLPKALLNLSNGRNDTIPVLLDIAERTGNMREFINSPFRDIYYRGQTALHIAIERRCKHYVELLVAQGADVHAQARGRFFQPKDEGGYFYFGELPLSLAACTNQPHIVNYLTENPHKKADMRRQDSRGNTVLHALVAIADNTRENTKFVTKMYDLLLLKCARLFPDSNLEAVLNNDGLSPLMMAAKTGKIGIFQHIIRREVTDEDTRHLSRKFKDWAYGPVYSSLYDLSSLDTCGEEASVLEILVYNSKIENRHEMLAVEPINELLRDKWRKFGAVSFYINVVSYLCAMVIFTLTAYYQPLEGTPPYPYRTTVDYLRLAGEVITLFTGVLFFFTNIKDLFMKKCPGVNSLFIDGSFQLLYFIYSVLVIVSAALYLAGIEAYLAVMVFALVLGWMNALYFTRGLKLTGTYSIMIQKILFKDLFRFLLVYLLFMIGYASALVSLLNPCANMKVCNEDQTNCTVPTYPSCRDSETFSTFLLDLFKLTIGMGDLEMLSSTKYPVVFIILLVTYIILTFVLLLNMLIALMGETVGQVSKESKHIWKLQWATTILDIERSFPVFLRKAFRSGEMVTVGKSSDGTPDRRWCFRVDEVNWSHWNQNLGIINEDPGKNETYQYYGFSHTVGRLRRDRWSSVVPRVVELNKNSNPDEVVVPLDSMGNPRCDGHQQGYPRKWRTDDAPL
hTRPA1, sequence (O75762 whole entry): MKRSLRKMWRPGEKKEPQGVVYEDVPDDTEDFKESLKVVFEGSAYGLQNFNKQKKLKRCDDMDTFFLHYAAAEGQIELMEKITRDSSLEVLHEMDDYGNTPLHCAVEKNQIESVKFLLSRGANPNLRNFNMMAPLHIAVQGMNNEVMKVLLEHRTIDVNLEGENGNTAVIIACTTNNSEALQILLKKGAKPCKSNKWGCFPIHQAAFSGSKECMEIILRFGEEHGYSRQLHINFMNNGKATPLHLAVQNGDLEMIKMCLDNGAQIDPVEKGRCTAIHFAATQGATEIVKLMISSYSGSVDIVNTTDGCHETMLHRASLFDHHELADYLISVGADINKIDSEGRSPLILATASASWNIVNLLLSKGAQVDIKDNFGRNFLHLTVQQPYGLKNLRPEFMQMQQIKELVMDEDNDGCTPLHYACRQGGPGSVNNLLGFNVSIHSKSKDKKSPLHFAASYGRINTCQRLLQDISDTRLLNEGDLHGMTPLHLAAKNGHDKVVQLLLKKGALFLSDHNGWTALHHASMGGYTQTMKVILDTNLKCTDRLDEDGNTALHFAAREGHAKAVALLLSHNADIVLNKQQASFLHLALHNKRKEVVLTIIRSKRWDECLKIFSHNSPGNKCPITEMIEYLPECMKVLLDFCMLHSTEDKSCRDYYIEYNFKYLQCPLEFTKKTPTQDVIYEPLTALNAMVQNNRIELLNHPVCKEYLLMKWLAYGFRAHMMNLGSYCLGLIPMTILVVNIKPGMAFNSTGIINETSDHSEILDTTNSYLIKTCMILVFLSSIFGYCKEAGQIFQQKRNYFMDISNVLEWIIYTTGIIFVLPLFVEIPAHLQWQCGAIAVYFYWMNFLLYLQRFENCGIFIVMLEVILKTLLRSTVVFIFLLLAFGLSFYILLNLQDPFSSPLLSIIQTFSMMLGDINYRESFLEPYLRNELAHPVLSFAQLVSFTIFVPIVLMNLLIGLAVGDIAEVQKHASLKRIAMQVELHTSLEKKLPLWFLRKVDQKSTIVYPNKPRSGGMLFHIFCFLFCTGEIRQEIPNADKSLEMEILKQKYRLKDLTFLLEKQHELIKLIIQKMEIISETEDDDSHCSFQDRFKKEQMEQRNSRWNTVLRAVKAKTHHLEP

O=C(c1ccc(F)cn1)N1CCC2(CC(O)c3cc(-c4ccccc4C4CC4)ccc32)C1 (stereo not shown) [Example 15, (5-(2-cyclopropylphenyl)-3-hydroxy-2,3-dihydrospiro[indene-1,3′-pyrrolidine]-1′-yl)(5-fluoropyridin-2-yl) ketone]
in vitro Clint [1]: 70.41 microliters/minute/milligrams
half-life at 1 μM ([1]; read-out: in vitro T1/2): 0.328 h
recover % [2]: 87.63%
remaining % ([2]; 6 hours): 97.37%
binding % ([2]; 6 hours dialysis): 99.58%
dissociated % ([2]; 6 hours dialysis): 0.42%
F ([3]; gavage, 10 mg/kg): 80.6%
AUC(0-inf) [3, 5]: 10500 ng·h/mL
C0 [3, 5]: 4060 ng/mL
clearance [3, 5]: 3.3 mL/min/kg
half-life [3, 5]: 1.63 h
Vd ([3]; male, SD, rat, plasma, intravenous, 2 mg/kg, read-out: Vss): 0.41 L/kg
AUC(0-inf) [3, 6]: 42200 ng·h/mL
Cmax [3, 6]: 8050 ng/mL
Tmax [3, 6]: 1.33 h
half-life [3, 6]: 1.88 h

O=C(c1ccc(F)cn1)N1CC[C@@]2(C[C@@H](O)c3cc(-c4ccccc4C4CC4)ccc32)C1 [Example 21, ((1S,3R)-5-(2-cyclopropylphenyl)-3-hydroxy-2,3-dihydrospiro[indene-1,3′-pyrrolidine]-1′-yl)(5-fluoropyridin-2-yl)ketone]
inhibition at 0.3 µM (hTRPV4; hTRPV4, 0.3 μM): 29.3%
Selectivity ratio (hTRPV4; inhibition rate on TRPV3 / inhibition rate on hTRPV4, 0.3 μM): 3.1X
inhibition at 0.3 µM (hTRPA1; hTRPA1, 0.3 μM): 10.7%
Selectivity ratio (hTRPA1; inhibition rate on TRPV3 / inhibition rate on hTRPA1, 0.3 μM): 8.4X
Papp A→B at 2 h, 5 μM ([4]; 2 hours): 20.9 ×10⁻⁶ cm/s
Papp B→A at 2 h, 5 μM ([4]; 2 hours): 9.58 ×10⁻⁶ cm/s
efflux ratio at 2 h, 5 μM ([4]; read-out: External ratio): 0.46
Recover A→B % (Caco-2 cells): 49.40%
Recover B→A % (Caco-2 cells): 68.20%
